One test relates to TMD-8 cells. The experiment in a line: Cell proliferation assay (CellTiter-Glo), TMD-8 cells. It counts as cell-based. The conditions noted are these: Homo sapiens, TMD8, 120 h, 5-day treatment, read-out: TMD8 cell growth (GI50 μM). Put shortly: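 TMD-8 cells seeded at 5,000–10,000/well, cultured overnight, then exposed to compound (vehicle 0.5% DMSO) for 5 days at 37 °C. Growth read by CellTiter-Glo luminescence; IC50 from log concentration versus % growth inhibition relative to vehicle.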

The target in the next test is T1, Btk (Homo sapiens, UniProt Q06187).
T1 construct: purchased Promega (Madison, Wis.)
The experiment in a line: Btk kinase assay (ADP-Glo). It counts as biochemical. The conditions noted are these: ADP-Glo Btk kinase assay kit; ATP 1.2 μM; 60 minutes at room temperature. The method, boiled down:
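Luminescent ADP detection after a 60 min reaction at 22±1 °C containing Btk 2 ng/μl, 1.2 μM ATP, 0.3 μM poly GT peptide and 1.4 mM MnCl2. IC50 from log concentration versus percent inhibition relative to DMSO vehicle.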

T1 sequence (Q06187 whole entry): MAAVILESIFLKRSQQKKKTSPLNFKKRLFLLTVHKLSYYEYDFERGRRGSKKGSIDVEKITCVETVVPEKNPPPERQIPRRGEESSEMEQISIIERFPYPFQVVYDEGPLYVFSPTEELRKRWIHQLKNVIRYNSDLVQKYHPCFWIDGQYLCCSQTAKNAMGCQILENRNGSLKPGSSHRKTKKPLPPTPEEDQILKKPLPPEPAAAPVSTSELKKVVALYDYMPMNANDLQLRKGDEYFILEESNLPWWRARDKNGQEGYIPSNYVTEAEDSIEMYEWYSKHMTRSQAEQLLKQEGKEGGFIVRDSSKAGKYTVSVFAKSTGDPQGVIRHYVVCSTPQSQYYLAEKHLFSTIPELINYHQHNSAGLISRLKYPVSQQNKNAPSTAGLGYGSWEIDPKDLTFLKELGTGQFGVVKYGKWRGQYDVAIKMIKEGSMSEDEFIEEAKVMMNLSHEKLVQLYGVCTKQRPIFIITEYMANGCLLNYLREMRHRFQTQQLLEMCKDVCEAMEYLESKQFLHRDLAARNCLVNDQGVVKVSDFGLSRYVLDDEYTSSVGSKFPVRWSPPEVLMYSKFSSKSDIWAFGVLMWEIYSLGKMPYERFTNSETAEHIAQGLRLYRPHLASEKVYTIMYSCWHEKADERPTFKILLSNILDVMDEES

Take `C=CC(=O)Nc1cccc(Nc2ncnc3[nH]c(C#Cc4ccc(Cl)cc4)cc23)c1` [Example 105, N-(3-((6-((4-chlorophenyl)ethynyl)-7H-pyrrolo[2,3-d]pyrimidin-4-yl)amino)phenyl)acrylamide]: the GI50 with TMD-8 cells came out at 0.048 µM. The IC50 at Btk stood at 0.155 µM.

The values are drawn from US10144737B2 (ETERNITY BIOSCIENCE INC., priority 2014, dated 2018).
